What was measured:
JAK3 = molecular target: T1, JAK3 (Homo sapiens, UniProt P52333); conditions: cited from earlier work
T1 sequence (P52333 1-1124): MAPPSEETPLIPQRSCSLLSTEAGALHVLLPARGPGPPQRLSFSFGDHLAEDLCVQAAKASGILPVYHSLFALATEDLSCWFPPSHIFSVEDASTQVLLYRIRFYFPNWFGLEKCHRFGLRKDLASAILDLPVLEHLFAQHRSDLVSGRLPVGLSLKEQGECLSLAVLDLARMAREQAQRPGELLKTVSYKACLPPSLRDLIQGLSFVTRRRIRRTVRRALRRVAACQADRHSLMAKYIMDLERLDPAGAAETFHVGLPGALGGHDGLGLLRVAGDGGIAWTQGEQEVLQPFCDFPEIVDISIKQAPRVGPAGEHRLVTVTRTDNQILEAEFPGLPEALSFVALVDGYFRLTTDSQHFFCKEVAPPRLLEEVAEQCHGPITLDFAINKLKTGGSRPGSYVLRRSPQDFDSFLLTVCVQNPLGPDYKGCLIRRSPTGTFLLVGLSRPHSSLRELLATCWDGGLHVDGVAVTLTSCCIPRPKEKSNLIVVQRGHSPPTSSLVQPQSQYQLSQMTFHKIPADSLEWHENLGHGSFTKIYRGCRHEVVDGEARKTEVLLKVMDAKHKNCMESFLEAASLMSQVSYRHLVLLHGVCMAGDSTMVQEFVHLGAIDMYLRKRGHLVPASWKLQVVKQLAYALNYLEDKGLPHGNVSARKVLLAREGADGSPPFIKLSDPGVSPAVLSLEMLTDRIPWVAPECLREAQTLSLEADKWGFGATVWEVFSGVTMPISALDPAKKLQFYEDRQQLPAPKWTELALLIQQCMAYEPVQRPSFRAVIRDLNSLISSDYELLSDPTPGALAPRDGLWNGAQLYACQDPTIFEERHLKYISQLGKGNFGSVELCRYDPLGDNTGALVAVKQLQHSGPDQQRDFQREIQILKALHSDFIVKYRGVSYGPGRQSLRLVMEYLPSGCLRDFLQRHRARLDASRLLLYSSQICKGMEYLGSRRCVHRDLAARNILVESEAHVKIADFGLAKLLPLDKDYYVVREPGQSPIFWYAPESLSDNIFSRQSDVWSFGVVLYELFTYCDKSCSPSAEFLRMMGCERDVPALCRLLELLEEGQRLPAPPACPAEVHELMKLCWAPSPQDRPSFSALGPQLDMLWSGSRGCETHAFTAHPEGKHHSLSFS

[1] = tested on: oxazolone-induced colitis; assay: Oxazolone-induced colitis model; type: in vivo; conditions: mice
Source text: (§1) Oxazolone-induced colitis is an experimental model that has a histological resemblance to human ulcerative colitis.

[2] = Drug concentration in stool samples of healthy human subjects; type: in vivo
Source text: As described previously in U.S. Pat. No. 9,725,470, the absorption and distribution of Compound I has been extensively profiled in preclinical assays. […] In addition, Compound I is designed to have its effect at the site of action in the gastrointestinal tract.

JAK1 = JAK1 (Homo sapiens, UniProt P23458); conditions: cited from earlier work
JAK1, sequence (P23458 whole entry): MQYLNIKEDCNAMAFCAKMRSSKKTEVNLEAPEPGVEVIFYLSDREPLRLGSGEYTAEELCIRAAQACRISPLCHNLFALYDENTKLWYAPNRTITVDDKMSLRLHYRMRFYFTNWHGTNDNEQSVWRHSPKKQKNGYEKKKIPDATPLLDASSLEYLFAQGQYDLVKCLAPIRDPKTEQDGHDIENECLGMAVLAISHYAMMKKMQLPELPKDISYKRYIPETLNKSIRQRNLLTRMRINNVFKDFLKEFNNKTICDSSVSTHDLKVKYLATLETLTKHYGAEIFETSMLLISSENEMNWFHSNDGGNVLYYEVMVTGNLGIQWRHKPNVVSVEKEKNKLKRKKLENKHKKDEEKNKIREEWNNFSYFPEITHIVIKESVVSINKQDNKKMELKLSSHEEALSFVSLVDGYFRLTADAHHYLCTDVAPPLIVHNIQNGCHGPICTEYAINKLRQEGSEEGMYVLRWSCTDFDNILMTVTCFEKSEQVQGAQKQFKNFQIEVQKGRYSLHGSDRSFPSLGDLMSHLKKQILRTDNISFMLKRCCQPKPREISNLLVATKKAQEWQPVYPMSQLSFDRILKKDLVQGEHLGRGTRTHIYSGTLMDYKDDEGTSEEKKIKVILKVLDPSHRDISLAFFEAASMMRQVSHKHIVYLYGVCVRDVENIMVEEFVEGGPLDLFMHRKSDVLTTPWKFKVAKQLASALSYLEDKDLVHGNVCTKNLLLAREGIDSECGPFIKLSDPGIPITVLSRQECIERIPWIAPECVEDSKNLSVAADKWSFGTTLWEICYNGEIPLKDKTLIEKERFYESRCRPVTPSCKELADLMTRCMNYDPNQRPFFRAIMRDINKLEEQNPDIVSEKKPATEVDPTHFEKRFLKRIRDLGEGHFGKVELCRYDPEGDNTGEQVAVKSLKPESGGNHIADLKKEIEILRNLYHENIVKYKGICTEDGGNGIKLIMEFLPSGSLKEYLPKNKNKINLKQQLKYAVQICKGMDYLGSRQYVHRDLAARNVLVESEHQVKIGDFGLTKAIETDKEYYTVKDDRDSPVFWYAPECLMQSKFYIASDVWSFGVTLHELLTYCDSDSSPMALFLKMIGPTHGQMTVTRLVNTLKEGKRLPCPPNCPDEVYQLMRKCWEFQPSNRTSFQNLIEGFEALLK

JAK2 = JAK2 (Homo sapiens, UniProt O60674); conditions: cited from earlier work
JAK2, sequence (O60674 whole entry): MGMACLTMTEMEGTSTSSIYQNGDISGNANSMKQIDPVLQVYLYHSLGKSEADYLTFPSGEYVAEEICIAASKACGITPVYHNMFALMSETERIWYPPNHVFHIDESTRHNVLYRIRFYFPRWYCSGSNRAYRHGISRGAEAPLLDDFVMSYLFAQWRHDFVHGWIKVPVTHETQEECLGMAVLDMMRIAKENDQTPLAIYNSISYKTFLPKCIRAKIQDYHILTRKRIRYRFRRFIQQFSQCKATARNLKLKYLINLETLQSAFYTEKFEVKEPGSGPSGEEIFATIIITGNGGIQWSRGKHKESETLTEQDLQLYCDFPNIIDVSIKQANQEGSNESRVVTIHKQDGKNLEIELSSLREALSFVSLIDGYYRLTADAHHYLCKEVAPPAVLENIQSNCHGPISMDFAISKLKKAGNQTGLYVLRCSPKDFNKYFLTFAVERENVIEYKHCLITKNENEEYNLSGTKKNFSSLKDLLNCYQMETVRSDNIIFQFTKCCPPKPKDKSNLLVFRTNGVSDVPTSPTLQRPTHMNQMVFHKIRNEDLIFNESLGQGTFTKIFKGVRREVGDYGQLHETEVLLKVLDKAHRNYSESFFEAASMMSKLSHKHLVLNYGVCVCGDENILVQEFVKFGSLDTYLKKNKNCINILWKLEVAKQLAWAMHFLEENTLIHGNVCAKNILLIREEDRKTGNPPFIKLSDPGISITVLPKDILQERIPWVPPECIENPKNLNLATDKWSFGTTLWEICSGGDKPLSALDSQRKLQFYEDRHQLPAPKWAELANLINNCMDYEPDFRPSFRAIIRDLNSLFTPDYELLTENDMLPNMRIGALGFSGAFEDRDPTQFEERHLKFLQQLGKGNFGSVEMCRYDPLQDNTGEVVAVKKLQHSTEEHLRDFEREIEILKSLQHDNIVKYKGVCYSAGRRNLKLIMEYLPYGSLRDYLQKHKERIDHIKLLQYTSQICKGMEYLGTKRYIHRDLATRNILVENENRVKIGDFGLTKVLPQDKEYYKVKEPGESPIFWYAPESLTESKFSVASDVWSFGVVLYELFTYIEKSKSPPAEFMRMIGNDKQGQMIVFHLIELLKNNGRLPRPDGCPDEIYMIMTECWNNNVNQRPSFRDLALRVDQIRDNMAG

TYK2 = TYK2 (Homo sapiens, UniProt P29597); conditions: cited from earlier work
TYK2, sequence (P29597 whole entry): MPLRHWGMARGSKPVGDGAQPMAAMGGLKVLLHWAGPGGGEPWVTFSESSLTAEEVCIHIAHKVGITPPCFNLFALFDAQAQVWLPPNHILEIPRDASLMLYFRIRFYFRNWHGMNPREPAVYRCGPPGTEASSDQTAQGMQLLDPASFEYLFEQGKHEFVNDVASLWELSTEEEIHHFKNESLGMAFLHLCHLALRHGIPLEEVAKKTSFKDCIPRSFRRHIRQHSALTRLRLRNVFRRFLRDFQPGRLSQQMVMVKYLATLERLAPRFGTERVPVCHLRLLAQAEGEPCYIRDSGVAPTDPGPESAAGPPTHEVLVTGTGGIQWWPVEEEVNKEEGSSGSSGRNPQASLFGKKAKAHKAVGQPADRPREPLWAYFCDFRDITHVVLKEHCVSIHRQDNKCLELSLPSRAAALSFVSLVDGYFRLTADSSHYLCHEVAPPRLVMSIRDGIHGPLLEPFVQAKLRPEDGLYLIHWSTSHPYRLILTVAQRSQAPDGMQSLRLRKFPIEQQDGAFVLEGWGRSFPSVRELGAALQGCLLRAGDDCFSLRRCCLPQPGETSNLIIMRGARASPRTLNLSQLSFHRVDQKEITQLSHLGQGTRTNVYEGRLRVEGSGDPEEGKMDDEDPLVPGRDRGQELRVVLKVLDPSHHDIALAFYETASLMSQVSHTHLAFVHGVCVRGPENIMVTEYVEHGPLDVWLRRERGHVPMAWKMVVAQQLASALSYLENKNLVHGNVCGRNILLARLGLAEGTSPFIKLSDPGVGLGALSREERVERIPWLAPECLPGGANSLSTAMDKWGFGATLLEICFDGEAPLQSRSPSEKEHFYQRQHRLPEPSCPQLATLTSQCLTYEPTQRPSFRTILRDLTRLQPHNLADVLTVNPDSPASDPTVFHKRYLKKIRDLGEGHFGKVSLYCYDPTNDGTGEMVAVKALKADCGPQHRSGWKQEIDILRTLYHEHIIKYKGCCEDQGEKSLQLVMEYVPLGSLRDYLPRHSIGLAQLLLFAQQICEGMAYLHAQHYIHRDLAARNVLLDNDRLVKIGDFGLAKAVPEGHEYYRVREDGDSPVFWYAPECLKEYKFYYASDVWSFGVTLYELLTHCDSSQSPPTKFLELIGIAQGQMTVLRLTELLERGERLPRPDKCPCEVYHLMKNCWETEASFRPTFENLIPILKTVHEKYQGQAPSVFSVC

[3] = Dissolution profiles of tablets with 3% magnesium stearate (blending process, particle size); type: physicochemical; conditions: tablet with 3% magnesium stearate, Compound I particles blended with a filler, no pre-blending with hydrophobic colloidal silicon dioxide
Protocol: […] The particle size of Compound I was determined by static image analysis.
During manufacturing of certain tablets comprising 0.5-1% magnesium stearate, film formation on tablet punches was observed. The film formed after compression of a few tablets. After extensive investigation, the problem was resolved by increasing the magnesium stearate content in the composition up to 3%. […]
Using this manufacturing procedure, consistently fast dissolution profiles were obtained for different particle sizes of Compound I without leading to the unwanted film formation on tablet punches. Dissolution profiles of tablets manufactured according to this procedure and containing various particle sizes of Compound I are depicted in FIG. 9.

immunosuppression = assay: Immunosuppression model (systemic functional activity); type: in vivo; conditions: mice, same dose required to demonstrate efficacy in the oxazolone model
Source text: as §1

[4] = oral dosing, preclinical species; cited from earlier work
[5] = cannulated rats; cited from earlier work
[6] = rat; cited from earlier work

For `Cc1cc(Nc2cc3ncccc3c(N[C@@H]3C[C@H]4CC[C@@H](C3)N4CCC#N)n2)n[nH]1` [Compound I, 3-((1R,3s,5S)-3-((7-((5-methyl-1H-pyrazol-3-yl)amino)-1,6-naphthyridin-5-yl)amino)-8-azabicyclo[3.2.1]octan-8-yl)propanenitrile], the “Inhibition of JAK3” value (JAK3) is listed as “potent inhibitor”, the “Activity in the oxazolone-induced colitis model” value [1] is listed as “demonstrated activity” and the “Drug concentration in stool samples” value [2] is listed as “high drug concentration”. The “Inhibition of JAK1” value (JAK1) was “potent inhibitor”, the “Inhibition of JAK2” value (JAK2) was “potent inhibitor” and the “Inhibition of TYK2” value (TYK2) was “potent inhibitor”. The “Dissolution rate (FIG. 8)” value [3] was “reduced dissolution rate”, the Effect of immunosuppression (immunosuppression) was “minimal effect of immunosuppression” and the “Exposure throughout the gastrointestinal tract compared with exposure in plasma” value [4] was “significantly higher exposure”. For the same compound, the “Absorption into plasma at the portal vein” value [5] was “low absorption” and the “Ratio of exposure in the colon to exposure in plasma” value [6] was “greater than 450”.

Source: US11795180B2, “Formulation of a pan-JAK inhibitor” (THERAVANCE BIOPHARMA R&D IP, LLC, priority 2020, dated 2023)
